Experimental data reported in paper PMC10544575, “Inhibitory mechanism of vortioxetine on CYP450 enzymes in human and rat liver microsomes” (Frontiers in Pharmacology, 2023).
Entries after “also recorded” stand apart in the source; their conditions may differ.

Tests used:
[1] = test system: CYP2C-3; assay: IC50-shift experiment, CYP2C-3 in RLMs; format: in vitro ADME; conditions: rat, rat liver microsomes, probe mephenytoin; for IC50 at 30 min: mephenytoin 400 μM
Method: (§1) The components of the incubation system were as follows: 0.20 mg/mL HLMs or 0.20 mg/mL RLMs, 0.1 M Tris-HCl, vortioxetine, and the probe substrates of each enzyme. In the study of Km’s (Michaelis–Menten constant) experiment, midazolam (1, 2, 5, 10, 20, 50 and 100 μM in HLMs and RLMs) corresponded to CYP3A4/3A; bupropion (10, 20, 50, 100, 200, 500, 1,000 and 2000 μM in HLMs; 1, 2, 5, 10, 20, 50, 100 and 200 μM in RLMs) corresponded to CYP2B6/2B; amodiaquine (5, 10, 20, 50, 100 and 200 μM in HLMs; 10, 20, 50, 100, 200, 500 μM in RLMs) corresponded to CYP2C8/CYP2C-1; losartan (1, 2, 5, 10, 20, 50, 100, 200 μM in HLMs; 10, 20, 50, 100, 200, 500 and 1,000 μM in RLMs) corresponded to CYP2C9/CYP2C-2; mephenytoin (20, 50, 100, 200, 500 and 1,000 μM in HLMs; 5, 10, 20, 50, 100, 200, 500 and 1,000 μM in RLMs) corresponded to CYP2C19/CYP2C-3; and dextromethorphan (1, 2, 5, 10, 20, 50 and 100 μM in HLMs and RLMs) corresponded to CYP2D6/CYP2D. After 5.0 min of preincubation in the shaking water bath, the reaction was started with the addition of 1.0 mM NADPH. The incubated temperature at 37°C for 30 min. After the incubation, the enzyme reaction was stopped by cooling at −80°C, and 200 μL of acetonitrile and 20 μL of internal standard diazepam (200 ng/mL) were added for protein precipitation. […]
(§2) IC50-shift was used to investigate whether the drug produced time-dependent inhibition (TDI) of the enzyme. […] During the experiment, the individual substrates midazolam (4 μM), bupropion (40 μM), amodiaquine (3 μM), losartan (8 μM), mephenytoin (90 μM), and dextromethorphan (10 μM) were determined with vortioxetine IC50-shift in HLMs. […]
(§3) All experiments results were detected by UPLC-MS/MS, which equipped with a Waters Acquity UPLC system (Milford, MA, United States) and a Waters Xevo TQ-S triple quadrupole tandem mass spectrometer with an electrospray ionization source (Milford, MA, United States). […]
(§4) IC50 values and enzyme kinetic parameters were calculated by Graphpad Prism 6.0 (GraphPad software Inc., CA, United States). […] Data for each experiment were expressed as mean ± SD (n = 3).

[2] = test system: CYP450; assay: Overall assessment of time-dependent inhibition (IC50-shift) on CYP450 in HLMs and RLMs; format: in vitro ADME, human and rat
Method: IC50-shift was used to investigate whether the drug produced time-dependent inhibition (TDI) of the enzyme. […] The above mixture was then incubated for another 30 min. During the experiment, the individual substrates midazolam (4 μM), bupropion (40 μM), amodiaquine (3 μM), losartan (8 μM), mephenytoin (90 μM), and dextromethorphan (10 μM) were determined with vortioxetine IC50-shift in HLMs. […] Other experimental conditions were the same as above.

[3] = molecular target: T1, CYP2B6 (Homo sapiens, UniProt P20813); assay: IC50 of vortioxetine on CYP2B6 (bupropion) in HLMs; format: in vitro ADME; set-up: 0.20 mg/mL HLMs; from tissue; host or cells: human liver microsomes
T1 sequence (P20813 1-491): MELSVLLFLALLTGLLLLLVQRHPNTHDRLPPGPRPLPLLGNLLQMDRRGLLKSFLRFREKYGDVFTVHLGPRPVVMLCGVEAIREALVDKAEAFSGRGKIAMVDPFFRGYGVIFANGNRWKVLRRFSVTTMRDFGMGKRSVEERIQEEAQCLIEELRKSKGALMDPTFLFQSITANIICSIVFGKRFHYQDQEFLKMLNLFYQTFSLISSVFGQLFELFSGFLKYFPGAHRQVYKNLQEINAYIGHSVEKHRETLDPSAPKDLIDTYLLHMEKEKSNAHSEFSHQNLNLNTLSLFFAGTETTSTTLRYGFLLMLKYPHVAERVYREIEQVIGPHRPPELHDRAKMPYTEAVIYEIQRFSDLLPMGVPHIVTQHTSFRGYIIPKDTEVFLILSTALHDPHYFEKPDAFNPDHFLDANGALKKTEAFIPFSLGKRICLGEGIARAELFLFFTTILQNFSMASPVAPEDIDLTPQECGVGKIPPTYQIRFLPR
Method: as §1, with “CYP2D6/CYP2D.” for “CYP2D6/CYP2D. After 5.0 min of preincubation in the shaking water bath, the reaction was started with the addition of 1.0 mM NADPH. The incubated temperature at 37°C for 30 min. After the incubation, the enzyme reaction was stopped by cooling at −80°C, and 200 μL of acetonitrile and 20 μL of internal standard diazepam (200 ng/mL) were added for protein precipitation.”
as §3, §4

[4] = molecular target: T1, CYP2B6; assay: IC50-shift experiment, CYP2B6 in HLMs; format: in vitro ADME; set-up: 0.20 mg/mL HLMs or 0.20 mg/mL RLMs; from tissue; host or cells: human liver microsomes; conditions: for IC50: bupropion 40 μM
Method: as §1, §2, §3, §4

[5] = 30 min preincubation with 1.0 mM NADPH
[6] = 30 min preincubation without NADPH

IC50 at 30 min [1, 5]: 5.21 µM
IC50 at 30 min [1, 6]: 24.6 µM
reversibility of inhibition of CYP450 enzymes ([2]; all CYP450 enzymes studied): reversible inhibition
IC50 ([3]; HLMs 0.20 mg/mL, bupropion at Km, 37°C, 30 min, read-out: IC50): 8.94 µM
IC50 ([3]; inhibitory effect (strength judged by IC50), HLMs): 1 to 10 µM
IC50 [4, 5]: 6.69 µM
IC50 [4, 6]: 5.38 µM
Structure (SMILES): Cc1ccc(Sc2ccccc2N2CCNCC2)c(C)c1 [vortioxetine]
IC50 shift at 30 min ([1]; ratio IC50 (−) NADPH to IC50 (+) NADPH, read-out: IC50 fold shift): 4.72
time-dependent inhibition (TDI) ([2]; six CYP450 isoforms in HLMs and RLMs, judged by IC50-shift (>10 = TDI)): no time-dependent inhibition (TDI); also recorded: no TDI effect
IC50 shift at 30 min ([4]; human, human liver microsomes, probe bupropion (40 μM), ratio IC50 (−) NADPH to IC50 (+) NADPH, read-out: IC50 fold shift): 0.8
